Laboratory results from publication PMC4658182, “The Synthetic Antimicrobial Peptide 19-2.5 Interacts with Heparanase and Heparan Sulfate in Murine and Human Sepsis” (PLoS ONE, 2015).
Blank lines part the entries; values can stand above or below the molecule they belong to.

Key:
[1] = Isothermal titration calorimetry, binding to HS-fragments; details: vs peptide 19–2.5 (Table 2)
Procedure: Isothermal titration calorimetry (ITC) experiments were performed as previously described. Briefly, the binding of peptide 19–2.5 to heparanase or HS-fragments was recorded by measuring the enthalpy change of the reaction at 37°C. For this, a total of 100 μg/ml heparanase (R&D Systems Europe Ltd., Abingdon, United Kingdom) and 200 μg/ml HS-fragments (H7640 Sigma-Aldrich, St. Louis, MO, USA) were dispersed into the calorimetric cell, and 2 mM peptide 19–2.5 was titrated to this dispersion stepwise in 3 μl portions. After exploring experiments, the concentration of HS was 100 μg/ml titrated with 1.5 μl of peptide 19–2.5 (2 mM) 20 times at 37°C.
Fig 5 Isothermal titration calorimetry (ITC). For the ITC experiments, 2 mM peptide 19–2.5 was titrated to this dispersion stepwise in 3 μl portions into (A) 200 μg/ml heparan sulfate-fragments (HS) and (B) 100 μg/ml heparanase (Hep). In each titration, the resulting heat signals P were recorded (peak downwards are exothermic, peaks upwards endothermic reactions) against time (min) and presented in the top parts of Fig 5A and 5B. The integrated enthalpy changes ΔH versus [peptide]:[HS-fragments] (A) and [peptide]:[heparanase] (B) concentration ratios of the single titrations are illustrated in the bottom parts of Fig 5A and 5B.

[2] = cited from earlier work
Source text: Sepsis is a common and life-threatening disease especially in medical and surgical intensive care patients with mortality rates up to 60% [1]. It is characterized by a systemic inflammatory response to infection triggered by both pathogen-associated molecular patterns (PAMPs) as well as endogenous danger-associated molecular patterns (DAMPs). Here, heparan sulfate and the enzyme heparanase play key roles. Heparan sulfates are linear polysaccharides composed of repeating disaccharide subunits, which are D-glucosamine and D-glucuronic acid in their unmodified form. They are attached ...

[3] = biological target: heparanase (UniProt Q9Y251); assay: ITC; 2 mM peptide 19-2.5 titrated stepwise in 3 ul portions into 100 ug/ml heparanase in the calorimetric cell, 37 °C
Sequence of heparanase (Q9Y251 36-543): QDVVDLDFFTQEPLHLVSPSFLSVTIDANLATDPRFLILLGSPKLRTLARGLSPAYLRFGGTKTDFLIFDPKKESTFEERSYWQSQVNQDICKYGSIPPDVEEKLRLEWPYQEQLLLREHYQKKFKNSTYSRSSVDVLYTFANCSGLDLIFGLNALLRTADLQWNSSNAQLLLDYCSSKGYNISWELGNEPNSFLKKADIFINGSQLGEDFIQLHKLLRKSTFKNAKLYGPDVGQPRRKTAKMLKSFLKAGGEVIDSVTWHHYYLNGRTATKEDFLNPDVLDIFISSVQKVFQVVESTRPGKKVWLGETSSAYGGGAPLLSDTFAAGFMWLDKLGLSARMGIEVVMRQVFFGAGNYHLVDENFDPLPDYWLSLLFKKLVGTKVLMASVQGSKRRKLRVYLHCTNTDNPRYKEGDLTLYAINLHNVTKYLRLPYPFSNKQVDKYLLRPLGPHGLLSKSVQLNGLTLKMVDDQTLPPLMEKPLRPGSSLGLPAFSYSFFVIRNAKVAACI

Molecule: GCKKYRRFRWKFKGK [peptide 19–2.5gek, peptide variant with the hydrophobic C-terminal of the peptide, FWFWG, removed]
- binding constant to HS-fragments on removal of C-terminal FWFWG [1]: dramatically decreases

Molecule: LL-37: naturally occurring antimicrobial cathelicidin peptide LL-37
- neutralization of pro-inflammatory action of PAMPs and DAMPs [2]: neutralizes the pro-inflammatory action of PAMPs and DAMPs
- toxicity ([2]; limits therapeutic use): intrinsic toxicity

- dH (at the beginning of the titration) [3]: -5.98 kcal/mol
B1: synthetic antimicrobial peptide 19-2.5 (peptide)
peptide: GCKKYRRFRWKFKGKFWFWG
